Laboratory results from PubChem BioAssay (NCI).
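Results reflect a 48-hour exposure of cells in 96-well plates to compound at five concentrations. At the GI50, growth is halved. TGI is the concentration that stops growth completely.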

Columns and labels:
Assay in all cases: NCI-60 cell line screen, 48 h
TK-10 renal = tested on: TK-10 renal
SK-OV-3 ovarian = tested on: SK-OV-3 ovarian
K-562 leukemia = tested on: K-562 leukemia
HCC-2998 colon = tested on: HCC-2998 colon
NCI/ADR-RES ovarian = tested on: NCI/ADR-RES ovarian
SNB-75 CNS = tested on: SNB-75 CNS
OVCAR-4 ovarian = tested on: OVCAR-4 ovarian
MDA-MB-435 = tested on: MDA-MB-435
HCT-15 colon = tested on: HCT-15 colon
HCT-116 colon = tested on: HCT-116 colon
A498 renal = tested on: A498 renal
CAKI-1 renal = tested on: CAKI-1 renal
MDA-MB-231 breast = tested on: MDA-MB-231 breast
BT-549 breast = tested on: BT-549 breast
DU-145 prostate = tested on: DU-145 prostate
NCI-H226 lung = tested on: NCI-H226 lung
786-0 renal = tested on: 786-0 renal
OVCAR-5 ovarian = tested on: OVCAR-5 ovarian
SNB-19 CNS = tested on: SNB-19 CNS
U251 CNS = tested on: U251 CNS
OVCAR-8 ovarian = tested on: OVCAR-8 ovarian
HOP-62 NSCLC = tested on: HOP-62 NSCLC
HOP-92 NSCLC = tested on: HOP-92 NSCLC
HS 578T breast = tested on: HS 578T breast
T-47D breast = tested on: T-47D breast
A549 NSCLC = tested on: A549 NSCLC
SK-MEL-28 melanoma = tested on: SK-MEL-28 melanoma
RPMI-8226 leukemia = tested on: RPMI-8226 leukemia
HL-60(TB) leukemia = tested on: HL-60(TB) leukemia
LOX IMVI melanoma = tested on: LOX IMVI melanoma
SR leukemia = tested on: SR leukemia
PC-3 prostate = tested on: PC-3 prostate
OVCAR-3 ovarian = tested on: OVCAR-3 ovarian
SN12C renal = tested on: SN12C renal
SF-268 CNS = tested on: SF-268 CNS
UACC-62 melanoma = tested on: UACC-62 melanoma
NCI-H23 lung = tested on: NCI-H23 lung
SW-620 colon = tested on: SW-620 colon
CCRF-CEM leukemia = tested on: CCRF-CEM leukemia
EKVX NSCLC = tested on: EKVX NSCLC
ACHN renal = tested on: ACHN renal
MOLT-4 leukemia = tested on: MOLT-4 leukemia
M14 melanoma = tested on: M14 melanoma
MCF7 breast = tested on: MCF7 breast
SK-MEL-2 melanoma = tested on: SK-MEL-2 melanoma
SK-MEL-5 melanoma = tested on: SK-MEL-5 melanoma
NCI-H522 lung = tested on: NCI-H522 lung
COLO 205 colon = tested on: COLO 205 colon
KM12 colon = tested on: KM12 colon
UACC-257 melanoma = tested on: UACC-257 melanoma
SF-295 CNS = tested on: SF-295 CNS
IGROV1 ovarian = tested on: IGROV1 ovarian
HT29 colon = tested on: HT29 colon
SF-539 CNS = tested on: SF-539 CNS
NCI-H460 lung = tested on: NCI-H460 lung
UO-31 renal = tested on: UO-31 renal

O=C(Nc1cccc(Cl)c1)Nc1cc2ncncc2cc1OCc1cccc(F)c1
GI50 (TK-10 renal): 2630 nM
TGI (TK-10 renal): 7.98 µM
GI50 (SK-OV-3 ovarian): 2450 nM
TGI (SK-OV-3 ovarian): 6.13 µM
GI50 (K-562 leukemia): 2520 nM
TGI (K-562 leukemia): > 100 µM
GI50 (HCC-2998 colon): 3.9 µM
TGI (HCC-2998 colon): > 100 µM
GI50 (NCI/ADR-RES ovarian): 2970 nM
TGI (NCI/ADR-RES ovarian): 7.71 µM
GI50 (SNB-75 CNS): 1810 nM
TGI (SNB-75 CNS): 3.98 µM
GI50 (OVCAR-4 ovarian): 2560 nM
TGI (OVCAR-4 ovarian): 7.35 µM
GI50 (MDA-MB-435): 1480 nM
TGI (MDA-MB-435): 4.34 µM
GI50 (HCT-15 colon): 2720 nM
TGI (HCT-15 colon): > 100 µM
GI50 (HCT-116 colon): 2610 nM
TGI (HCT-116 colon): > 100 µM
GI50 (A498 renal): 1750 nM
TGI (A498 renal): 5.96 µM
GI50 (CAKI-1 renal): 3.03 µM
TGI (CAKI-1 renal): > 100 µM
GI50 (MDA-MB-231 breast): 2540 nM
TGI (MDA-MB-231 breast): 7.8 µM
GI50 (BT-549 breast): 2340 nM
TGI (BT-549 breast): 7.41 µM
GI50 (DU-145 prostate): 3.38 µM
TGI (DU-145 prostate): > 100 µM
GI50 (NCI-H226 lung): 2910 nM
TGI (NCI-H226 lung): 9.19 µM
GI50 (786-0 renal): 3000 nM
TGI (786-0 renal): > 100 µM
GI50 (OVCAR-5 ovarian): 2720 nM
TGI (OVCAR-5 ovarian): > 100 µM
GI50 (SNB-19 CNS): 2910 nM
TGI (SNB-19 CNS): 74.2 µM
GI50 (U251 CNS): 3.28 µM
TGI (U251 CNS): > 100 µM
GI50 (OVCAR-8 ovarian): 2760 nM
TGI (OVCAR-8 ovarian): 7.98 µM
GI50 (HOP-62 NSCLC): 2100 nM
TGI (HOP-62 NSCLC): 5.6 µM
GI50 (HOP-92 NSCLC): 1880 nM
TGI (HOP-92 NSCLC): 6.88 µM
GI50 (HS 578T breast): 2620 nM
TGI (HS 578T breast): 7.02 µM
GI50 (T-47D breast): 1750 nM
TGI (T-47D breast): 4.37 µM

COc1ccc2c(=O)c(-c3cc4c(cc3OC)OCO4)coc2c1
TGI (TK-10 renal): > 100 µM
TGI (SK-OV-3 ovarian): > 100 µM
TGI (A549 NSCLC): > 100 µM
TGI (SK-MEL-28 melanoma): > 100 µM
TGI (RPMI-8226 leukemia): > 100 µM
TGI (HL-60(TB) leukemia): > 100 µM
TGI (HCC-2998 colon): > 100 µM
TGI (LOX IMVI melanoma): > 100 µM
TGI (NCI/ADR-RES ovarian): > 100 µM
TGI (SR leukemia): > 100 µM
TGI (PC-3 prostate): > 100 µM
TGI (OVCAR-3 ovarian): > 100 µM
TGI (SNB-75 CNS): > 100 µM
TGI (SN12C renal): > 100 µM
TGI (OVCAR-4 ovarian): > 100 µM
TGI (HCT-15 colon): > 100 µM
TGI (SF-268 CNS): > 100 µM
TGI (HCT-116 colon): > 100 µM
TGI (UACC-62 melanoma): > 100 µM
TGI (NCI-H23 lung): > 100 µM
TGI (SW-620 colon): > 100 µM
TGI (A498 renal): > 100 µM
TGI (CAKI-1 renal): > 100 µM
TGI (MDA-MB-231 breast): > 100 µM
TGI (CCRF-CEM leukemia): > 100 µM
TGI (BT-549 breast): > 100 µM
TGI (EKVX NSCLC): > 100 µM
TGI (ACHN renal): > 100 µM
TGI (MOLT-4 leukemia): > 100 µM
TGI (M14 melanoma): > 100 µM
TGI (DU-145 prostate): > 100 µM
TGI (NCI-H226 lung): > 100 µM
TGI (MCF7 breast): > 100 µM
TGI (SK-MEL-2 melanoma): > 100 µM
TGI (786-0 renal): > 100 µM
TGI (SK-MEL-5 melanoma): > 100 µM
TGI (NCI-H522 lung): > 100 µM
TGI (OVCAR-5 ovarian): > 100 µM
TGI (SNB-19 CNS): > 100 µM
TGI (U251 CNS): > 100 µM
TGI (COLO 205 colon): > 100 µM
TGI (KM12 colon): > 100 µM
TGI (UACC-257 melanoma): > 100 µM
TGI (OVCAR-8 ovarian): > 100 µM
TGI (SF-295 CNS): > 100 µM
TGI (IGROV1 ovarian): > 100 µM
TGI (HOP-62 NSCLC): > 100 µM
TGI (HOP-92 NSCLC): > 100 µM
TGI (HS 578T breast): > 100 µM
TGI (HT29 colon): > 100 µM
TGI (SF-539 CNS): > 100 µM
TGI (NCI-H460 lung): > 100 µM
TGI (T-47D breast): > 100 µM
TGI (UO-31 renal): > 100 µM
